Reference: article PMC11876601 (Molecular Systems Biology, 2025)
Read-outs that look alike come from different tables or passages of the source.

Legend:
[1] = tested on: HPDE (immortalized pancreatic duct cell line); assay: Drug combination viability screen (ATPlite, 72 h); format: cell-based, human; conditions: single agent, HPDE;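 further: area under vehicle-normalized viability curve scaled 0 to 100 percent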
Procedure: (§1) Cell viability was assessed by measuring ATP levels to indicate metabolic activity.
(§2) Afterward, small amounts were transferred to 384-well intermediate plates (Greiner Bio-One GmbH, Germany). […] For drug combination screening, 1000 to 5000 cells were seeded into 384-well plates (CulturPlate™, Perkin Elmer, MA, USA) using a Multidrop™ Combi Reagent Dispenser (Thermo Scientific, MA, USA) in 50 µl medium per well 24 h prior to drug treatment (seeding densities see Appendix Table S1). […] The final DMSO concentration in each well was 0.2%. […] Eight wells per plate without library drug served as negative controls, and sixteen wells per plate containing 5 µM Staurosporine served as positive controls. Control plates not containing any drug were used to correct for incubation effects, and data quality was assessed by calculation of Z-prime of positive and negative controls according to1 Z-prime=1−3SDpos+3SDneg/[…] where SD is the standard deviation. […] Dose–response curves from the experimental and hypothetical data were compared, and shifts in AUC were used to describe combination effects (AUC∆ = AUChypothetical − AUCexperimental). […] Only combinations with R^2 > 0.8 in both conditions were considered in the synergy analysis.

PANC-1 [2] = assay: cells; set-up: Viability of PDAC cell lines, ATPlite luminescence, 11-dose single-agent curve fit; conditions: Homo sapiens, PANC-1, 72 h, read-out: EC50 [nM]
Procedure, shortened: (§3)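 cells (1000 to 5000 per well) seeded 24 h before drug addition in a screen at 0.2% final DMSO. Controls were drug-free wells (negative) and 5 µM staurosporine (positive).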

AsPC-1 [3] = assay: cells; set-up: ATPlite luminescence viability of PDAC cell lines, 11-dose single-agent curves, 4-parameter fit; conditions: Homo sapiens, ASPC1, 72 h, read-out: EC50 [nM]
Procedure, shortened: (§4)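 cells (1000 to 5000 per well) seeded 24 h before drug addition in a combination screen at 0.2% final DMSO. Controls were drug-free wells (negative) and 5 µM staurosporine (positive).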

FAMPAC [4] = assay: cells; set-up: ATPlite luminescence viability of PDAC cell lines, 11-dose single-agent curves, 4-parameter fit; conditions: 72 h, read-out: EC50 [nM]
Procedure, shortened: as §4

HPDE [5] = assay: cells; set-up: ATPlite luminescence viability of PDAC cell lines, 11-dose single-agent curves, 4-parameter fit; conditions: HPDE, 72 h, read-out: EC50 [nM]
Procedure, shortened: as §4

MiaPaCa-2 [6] = assay: cells; set-up: ATPlite luminescence viability of PDAC cell lines, 11-dose single-agent curves, 4-parameter fit; conditions: Homo sapiens, MIA PaCa-2, 72 h, read-out: EC50 [nM]
Procedure, shortened: as §4

PSN-1 [7] = assay: cells; set-up: ATPlite luminescence viability of PDAC cell lines, 11-dose single-agent curves, 4-parameter fit; conditions: Homo sapiens, PSN1, 72 h, read-out: EC50 [nM]
Procedure, shortened: as §4

HuP-T4 [8] = assay: cells; set-up: ATPlite luminescence viability of PDAC cell lines, 11-dose single-agent curves, 4-parameter fit; conditions: Homo sapiens, HuP-T4, 72 h, read-out: EC50 [nM]
Procedure, shortened: as §4

BxPC-3 [9] = assay: cells; set-up: ATPlite luminescence viability of PDAC cell lines, 11-dose single-agent curves, 4-parameter fit; conditions: Homo sapiens, BXPC-3, 72 h, read-out: EC50 [nM]
Procedure, shortened: as §4

Suit2-07 [10] = assay: cells; set-up: ATPlite luminescence viability of PDAC cell lines, 11-dose single-agent curves, 4-parameter fit; conditions: 72 h, read-out: EC50 [nM]
Procedure, shortened: as §4

Colo-357 [11] = assay: cells; set-up: ATPlite luminescence viability of PDAC cell lines, 11-dose single-agent curves, 4-parameter fit; conditions: Homo sapiens, COLO357, 72 h, read-out: EC50 [nM]
Procedure, shortened: as §4

Capan-1 [12] = assay: cells; set-up: ATPlite luminescence viability of PDAC cell lines, 11-dose single-agent curves, 4-parameter fit; conditions: Homo sapiens, CAPAN-1, 72 h, read-out: EC50 [nM]
Procedure, shortened: as §4

PaTu-8988-T [13] = assay: cells; set-up: ATPlite luminescence viability of PDAC cell lines, 11-dose single-agent curves, 4-parameter fit; conditions: Homo sapiens, PaTu 8988t, 72 h, read-out: EC50 [nM]
Procedure, shortened: as §4

Dan-G [14] = assay: cells; set-up: ATPlite luminescence viability of PDAC cell lines, 11-dose single-agent curves, 4-parameter fit; conditions: 72 h, read-out: EC50 [nM]
Procedure, shortened: as §4

HuP-T4 [15] = assay: cells; set-up: Viability of PDAC cell lines, ATPlite luminescence, 11-dose single-agent curve fit; conditions: Homo sapiens, HuP-T4, 72 h, read-out: EC50 [nM]
Procedure, shortened: as §3

Colo-357 [16] = assay: cells; set-up: Viability of PDAC cell lines, ATPlite luminescence, 11-dose single-agent curve fit; conditions: Homo sapiens, COLO357, 72 h, read-out: EC50 [nM]
Procedure, shortened: as §3

Capan-1 [17] = assay: cells; set-up: Viability of PDAC cell lines, ATPlite luminescence, 11-dose single-agent curve fit; conditions: Homo sapiens, CAPAN-1, 72 h, read-out: EC50 [nM]
Procedure, shortened: as §3

13 PDAC cell lines = assay: Phenotypic drug combination viability screen (ATPlite, 72 h), cell line panel; format: cell-based, human; conditions: for median AUC across all cell lines: single agent, 72 h
Procedure: as §1, §2

AsPC-1 [18] = assay: cells; set-up: Viability of PDAC cell lines, ATPlite luminescence, 11-dose single-agent curve fit; conditions: Homo sapiens, ASPC1, 72 h, read-out: EC50 [nM]
Procedure, shortened: as §3

FAMPAC [19] = assay: cells; set-up: Viability of PDAC cell lines, ATPlite luminescence, 11-dose single-agent curve fit; conditions: 72 h, read-out: EC50 [nM]
Procedure, shortened: as §3

HPDE [20] = assay: cells; set-up: Viability of PDAC cell lines, ATPlite luminescence, 11-dose single-agent curve fit; conditions: HPDE, 72 h, read-out: EC50 [nM]
Procedure, shortened: as §3

MiaPaCa-2 [21] = assay: cells; set-up: Viability of PDAC cell lines, ATPlite luminescence, 11-dose single-agent curve fit; conditions: Homo sapiens, MIA PaCa-2, 72 h, read-out: EC50 [nM]
Procedure, shortened: as §3

PSN-1 [22] = assay: cells; set-up: Viability of PDAC cell lines, ATPlite luminescence, 11-dose single-agent curve fit; conditions: Homo sapiens, PSN1, 72 h, read-out: EC50 [nM]
Procedure, shortened: as §3

BxPC-3 [23] = assay: cells; set-up: Viability of PDAC cell lines, ATPlite luminescence, 11-dose single-agent curve fit; conditions: Homo sapiens, BXPC-3, 72 h, read-out: EC50 [nM]
Procedure, shortened: as §3

Suit2-07 [24] = assay: cells; set-up: Viability of PDAC cell lines, ATPlite luminescence, 11-dose single-agent curve fit; conditions: 72 h, read-out: EC50 [nM]
Procedure, shortened: as §3

PaTu-8988-T [25] = assay: cells; set-up: Viability of PDAC cell lines, ATPlite luminescence, 11-dose single-agent curve fit; conditions: Homo sapiens, PaTu 8988t, 72 h, read-out: EC50 [nM]
Procedure, shortened: as §3

Dan-G [26] = assay: cells; set-up: Viability of PDAC cell lines, ATPlite luminescence, 11-dose single-agent curve fit; conditions: 72 h, read-out: EC50 [nM]
Procedure, shortened: as §3

PANC-1 [27] = assay: cells; set-up: ATPlite luminescence viability of PDAC cell lines, 11-dose single-agent curves, 4-parameter fit; conditions: Homo sapiens, PANC-1, 72 h, read-out: EC50 [nM]
Procedure, shortened: as §4

Compound | AUC [1] [%] | EC50 (PANC-1 [2]) [nM] | EC50 (AsPC-1 [3]) [nM] | EC50 (FAMPAC [4]) [nM] | EC50 (HPDE [5]) [nM] | EC50 (MiaPaCa-2 [6]) [nM] | EC50 (PSN-1 [7]) [nM] | EC50 (HuP-T4 [8]) [nM] | EC50 (BxPC-3 [9]) [nM] | EC50 (Suit2-07 [10]) [nM] | EC50 (Colo-357 [11]) [nM] | EC50 (Capan-1 [12]) [nM] | EC50 (PaTu-8988-T [13]) [nM] | EC50 (Dan-G [14]) [nM] | EC50 (PANC-1 [27]) [nM] | also measured
O=C(/C=C\n1cnc(-c2cc(C(F)(F)F)cc(C(F)(F)F)c2)n1)NNc1cnccn1 [Selinexor] | < 60 | 182 | 229 | 97 | 37.7 | 190 | 64.2 | 1200 | 114 | 61 | 190 | 226 | 116 | 113 | – | –
CC(=O)Nc1cccc(-n2c(=O)n(C3CC3)c(=O)c3c(Nc4ccc(I)cc4F)n(C)c(=O)c(C)c32)c1 [Trametinib] | – | 45.6 | 3.02 | 9.21 | 7 | 3.92 | 5.34 | – | 13.1 | 8.92 | – | – | 7.98 | 1.4 | – | EC50 (HuP-T4 [15]): 8.2 nM; EC50 (Colo-357 [16]): 1160 nM; EC50 (Capan-1 [17]): 88.1 nM; median AUC across all cell lines (13 PDAC cell lines): < 70%
CO[C@H]1C[C@@H]2CC[C@@H](C)[C@@](O)(O2)C(=O)C(=O)N2CCCC[C@H]2C(=O)O[C@H]([C@H](C)C[C@@H]2CC[C@@H](OC(=O)C(C)(CO)CO)[C@H](OC)C2)CC(=O)[C@H](C)/C=C(\C)[C@@H](O)[C@@H](OC)C(=O)[C@H](C)C[C@H](C)/C=C/C=C/C=C/1C [Temsirolimus] | – | 29.2 | – | – | – | – | – | – | – | – | – | – | – | – | – | EC50 (AsPC-1 [18]): 1.54 nM; EC50 (FAMPAC [19]): 0.13 nM; EC50 (HPDE [20]): 0.19 nM; EC50 (MiaPaCa-2 [21]): 2.17 nM; EC50 (PSN-1 [22]): 0.57 nM; EC50 (HuP-T4 [15]): 30.2 nM; EC50 (BxPC-3 [23]): 0.06 nM; EC50 (Suit2-07 [24]): 0.35 nM; EC50 (Colo-357 [16]): 4160 nM; EC50 (Capan-1 [17]): 0.08 nM; EC50 (PaTu-8988-T [25]): 0.57 nM; EC50 (Dan-G [26]): 1.3 nM; median AUC across all cell lines (13 PDAC cell lines): > 80%
COc1cc2ncnc(Nc3ccc(F)c(Cl)c3)c2cc1NC(=O)/C=C/CN1CCCCC1 [Dacomitinib] | < 60 | – | > 10000 | 3270 | 46.5 | 2210 | 3850 | > 10000 | > 10000 | 1730 | 909 | 10300 | 2200 | 2440 | 3920 | –
Cn1ncnc1[C@H]1c2n[nH]c(=O)c3cc(F)cc(c23)N[C@@H]1c1ccc(F)cc1 [Talazoparib] | – | 1590 | – | 693 | – | 825 | 405 | – | – | 113 | 355 | 507 | – | 268 | – | EC50 (AsPC-1 [18]): 2650 nM; EC50 (HPDE [20]): > 10000 nM; EC50 (HuP-T4 [15]): 6060 nM; EC50 (BxPC-3 [23]): 2960 nM; EC50 (PaTu-8988-T [25]): > 10000 nM; number of cell lines with synergy with GEM (13 PDAC cell lines; of 13 cell lines, Bliss model): two
CN(C)C/C=C/C(=O)Nc1cc2c(Nc3ccc(F)c(Cl)c3)ncnc2cc1O[C@H]1CCOC1 [Afatinib] | < 60 | – | > 10000 | > 10000 | 22.8 | 1700 | > 10000 | > 10000 | 6420 | 9950 | 1.6 | 4990 | 2740 | 1.59 | 6660 | –
Cc1ccc(NC(=O)c2ccc(CN3CCN(C)CC3)cc2)cc1Nc1nc(-c2cccnc2)cs1 [Masitinib] | – | – | > 10000 | > 10000 | 5500 | 3770 | 4380 | > 10000 | 3050 | > 10000 | 6650 | 3950 | 4770 | 3880 | 3250 | –
CCOc1cc2ncc(C#N)c(Nc3ccc(OCc4ccccn4)c(Cl)c3)c2cc1NC(=O)/C=C/CN(C)C [Neratinib] | < 60 | 8210 | 816 | 1320 | 60.8 | 863 | > 10000 | > 10000 | 1210 | 1400 | 1280 | 6740 | 835 | 7080 | – | –
C[C@@H]1CN(C(=O)c2ccc(NC(=O)c3cc(O[C@H](C)c4c(Cl)ccc(F)c4Cl)c(N)nn3)cc2)C[C@H](C)N1 [Ensartinib] | – | – | 5190 | 3600 | 4130 | 791 | 4440 | 2630 | 7520 | 2000 | 2870 | 1990 | > 10000 | 2960 | > 10000 | –
Cc1cc(Nc2ncc(Cl)c(Nc3ccccc3S(=O)(=O)C(C)C)n2)c(OC(C)C)cc1C1CCNCC1 [Ceritinib] | – | – | 784 | 2770 | 1550 | 563 | 3390 | > 10000 | 2870 | 4690 | 2930 | 5480 | 1450 | 2470 | > 10000 | –
COc1cc(Nc2c(C#N)cnc3cc(OCCCN4CCN(C)CC4)c(OC)cc23)c(Cl)cc1Cl [Bosutinib] | – | – | 5990 | 3030 | 2140 | > 10000 | 4490 | > 10000 | 2170 | 2330 | 5090 | 6130 | > 10000 | 2910 | > 10000 | –
